Legend:
[1] = test system: mitochondrial FIFO ATP synthase; details: cited from earlier work
isolated rat hearts = details: during ischemia; cited from earlier work
FIFO = details: cited from earlier work
[2] = test system: β-cell apical anion exchange; details: read-out: block β-cell apical anion exchange (IC50); cited from earlier work
[3] = test system: monocarboxylic acid transport; details: cited from earlier work
[4] = test system: brush-border membrane vesicles; details: cited from earlier work
background K+ current = details: cited from earlier work
β-amyloid = details: cited from earlier work
Mg2+-ATPase = details: cited from earlier work
[5] = test system: plasma and mitochondrial membranes; details: cited from earlier work
[6] = test system: mitochondrial superoxide production; details: cited from earlier work
neoplastic cells = details: by interfering with hexokinase and disrupting uncoupler-stimulated mitochondrial electron transport; cited from earlier work
NADH oxidase = details: mitochondria preparations of S. cerevisiae; cited from earlier work
[7] = test system: NADH-cytochrome C reductase; details: mitochondria preparations of S. cerevisiae; cited from earlier work
succinate oxidase = details: mitochondria preparations of S. cerevisiae; cited from earlier work
[8] = test system: succinate cythochrome C reductase; details: mitochondria preparations of S. cerevisiae; cited from earlier work
[9] = test system: NADH:ubiquinone oxidoreductase; details: cited from earlier work
HL-1 = details: cited from earlier work
[10] = molecular target: mitochondrial outer membrane protein mitoNEET (Homo sapiens, UniProt Q9NZ45); details: cited from earlier work
Chain of mitochondrial outer membrane protein mitoNEET (Q9NZ45 whole entry): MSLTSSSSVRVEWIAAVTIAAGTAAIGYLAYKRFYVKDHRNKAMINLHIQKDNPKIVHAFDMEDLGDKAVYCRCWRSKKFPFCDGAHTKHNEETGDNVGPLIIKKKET

PPARγ = PPARγ (Homo sapiens, UniProt P37231); details: cited from earlier work
Chain of PPARγ (P37231 whole entry, species assumed): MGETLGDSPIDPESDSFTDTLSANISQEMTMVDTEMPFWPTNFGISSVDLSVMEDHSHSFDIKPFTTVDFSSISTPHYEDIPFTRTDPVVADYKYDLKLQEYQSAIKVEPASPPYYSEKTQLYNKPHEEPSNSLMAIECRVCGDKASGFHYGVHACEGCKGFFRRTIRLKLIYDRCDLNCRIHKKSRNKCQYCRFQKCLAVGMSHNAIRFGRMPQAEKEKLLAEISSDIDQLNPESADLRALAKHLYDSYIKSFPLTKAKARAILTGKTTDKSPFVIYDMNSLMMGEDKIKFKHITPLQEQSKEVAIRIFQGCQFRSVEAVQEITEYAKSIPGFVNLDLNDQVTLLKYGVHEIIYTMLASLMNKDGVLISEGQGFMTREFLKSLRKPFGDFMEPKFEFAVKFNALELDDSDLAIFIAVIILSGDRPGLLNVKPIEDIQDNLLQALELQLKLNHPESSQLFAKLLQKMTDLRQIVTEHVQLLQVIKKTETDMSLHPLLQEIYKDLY

[11] = test system: mice models of diabetes II; details: cited from earlier work
mitochondrial ATPase = details: cited from earlier work
ferroptosis = details: cited from earlier work
Y79 = assay: Exemplary training dataset: dysfunction D1 in Y79 cultures exposed to inhibitor A8674; format: cell-based, Human
Excerpt: or more simply by Yt1 . . . i,d1 . . . j,c1 . . . l or still as a vector Y of the form [y1, y2, . . . , yi*j*l]. Thus, a partial excerpt from an exemplary training data derived from input tensor X for system 100 may be given by Table 7 below:
In the above training dataset, each entry of column Y is a value in the vector Y discussed above. Each entry q of column X(qk) with a hat “^” denotes a vector and is an entry in input tensor X, and is a vector of measured quantities [q1, q2, . . . , qk] of the analytes in the biomarker measurement such as those shown in Tables 3-5. In other words, the training dataset consists of measured vectors q at indices i,j,l of tensor X per above explanation. Human retinoblastoma (Y79) from Table 1 above is used as the cell-line from which in vitro cultures are grown.
Note that rows 1-6 correspond to the scenario when no inhibitor was exposed (zero/O state), and unsurprisingly column Y indicates a 0 or a 0% probability that dysfunction D1 is present in the corresponding culture.

apoptosis = details: cited from earlier work
[12] = molecular target: human porphobilinogen synthase (PBGS; ALAD) (Homo sapiens, UniProt P13716); details: allosteric; cited from earlier work
Chain of human porphobilinogen synthase (PBGS; ALAD) (P13716 whole entry): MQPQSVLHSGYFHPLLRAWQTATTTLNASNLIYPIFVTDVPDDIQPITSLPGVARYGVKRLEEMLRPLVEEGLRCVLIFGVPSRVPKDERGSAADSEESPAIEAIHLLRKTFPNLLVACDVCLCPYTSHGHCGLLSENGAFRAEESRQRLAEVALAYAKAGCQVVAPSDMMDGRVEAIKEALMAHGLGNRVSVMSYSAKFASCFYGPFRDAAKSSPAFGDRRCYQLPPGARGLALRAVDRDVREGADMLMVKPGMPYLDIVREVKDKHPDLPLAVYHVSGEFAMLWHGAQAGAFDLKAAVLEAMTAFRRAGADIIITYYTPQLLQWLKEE

ADP ribosylation = details: cited from earlier work

## CC1(C)Oc2ccc(S(=O)(=O)N3CCCCC3)cc2[C@@H](N(Cc2ncc[nH]2)c2ccc(Cl)cc2)[C@@H]1O.Cl [BM0017, BMS-199264 hydrochloride]
[1]
  ATP hydrolase activity of mitochondrial FIFO ATP synthase: Potently inhibits the ATP
Isolated rat hearts
  depletion of ATP levels: blocks depletion of ATP levels,
FIFO
  effect on the ATP synthase function of FIFO: 199624 has no effect on the ATP

## N#CC(=Cc1ccc(O)cc1)C(=O)O [C2020, α-Cyano-4-hydroxycinnamic acid]
[2]
  IC50: 2.4 mM
[3]
  monocarboxylic acid transport, including lactate and pyruvate transport: Specific inhibitor of

## N#CC(C#N)=NNc1cccc(Cl)c1 [C2759, Carbonyl cyanide 3-chlorophenylhydrazone]
[4]
  Cl-/Cl- exchange activities: hepatic lipase and partially
  pH gradient-activated Cl- uptake: hepatic lipase and partially

## N#CC(C#N)=NNc1ccc(OC(F)(F)F)cc1 [C2920, Carbonyl cyanide 4-(trifluoromethoxy)phenylhydrazone]
Background K+ current
  background K+ current: It also is reported to inhibit
  inward current: induce a small inward current,
β-amyloid
  β-amyloid production: ATPase activity, inhibits β-
Mg2+-ATPase
  Mg2+-ATPase activity: [Na+]. FCCP stimulates Mg2+-
[5]
  depolarizing plasma and mitochondrial membranes: depolarizing plasma and
[6]
  effect of selective glutamate agonist NMDA on mitochondrial superoxide production: amyloid production, and mimics

## O=C(O)c1nn(Cc2ccc(Cl)cc2Cl)c2ccccc12 [L4900, Lonidamine]
Neoplastic cells
  energy metabolism of neoplastic cells: Inhibits the energy metabolism

## O=[N+]([O-])c1c(Cl)cccc1-c1c[nH]cc1Cl [P8861, Pyrrolnitrin from Pseudomonas cepacia]
NADH oxidase
  NADH oxidase: inhibited succinate oxidase,
[7]
  NADH-cytochrome C reductase: inhibited succinate oxidase,
Succinate oxidase
  succinate oxidase: inhibited succinate oxidase,
[8]
  succinate cythochrome C reductase: inhibited succinate oxidase,

## C=C(C)[C@H]1Cc2c(ccc3c2O[C@@H]2COc4cc(OC)c(OC)cc4[C@@H]2C3=O)O1 [R8875, Rotenone]
[9]
  mitochondrial electron transport at NADH:ubiquinone oxidoreductase: Inhibitor of mitochondrial

## O=C(Oc1cc(S(=O)(=O)c2ccccc2)ccc1[N+](=O)[O-])c1ccc(Cl)cc1 [SML1122, BTB06584]
[1]
  ATP hydrolase activity of mitochondrial FIFO ATP synthase: BTB06584 inhibits the ATP
HL-1
  effect on mitochondrial membrane potential: has no effect on oxygen
  effect on oxygen consumption: has no effect on oxygen

## CCOC(=O)N1CCC(NC(=S)Nc2cc(Cl)cc(Cl)c2)CC1 [SML1280, TT01001]
[10]
  binding to mitoNEET: ligands that binds to mitoNEET
PPARγ
  PPARγ activation: without PPARγ activation.
[11]; mice models of diabetes II
  glucose intolerance: TT01001 improves hyperglycemia,
  hyperglycemia: TT01001 improves hyperglycemia,
  hyperlipidemia: TT01001 improves hyperglycemia,
[11]; mouse, in vivo
  pioglitazone associated weight gain: anti-diabetic effects without

## CC[C@H]1/C=C/C=C/C[C@@H](C)[C@H](O)[C@@](C)(O)C(=O)[C@@H](C)[C@H](O)[C@@H](C)C(=O)[C@@H](C)[C@H](O)[C@@H](C)/C=C/C(=O)O[C@@H]2[C@H](C)[C@H](CC1)O[C@]1(CC[C@H](C)[C@H](C[C@@H](C)O)O1)[C@H]2C [compound 04876, Oligomycin from Streptomyces diastatochromogenes]
Mitochondrial ATPase
  mitochondrial ATPase and phosphoryl group transfer: Macrolide antibiotic; inhibits

## Cc1c(C)c(O)c(CC[C@](C)(O)CCC[C@H](C)CCC[C@H](C)CCCC(C)C)c(C)c1O [vitamin E hydroquinone]
ferroptosis
  inhibition of ferroptosis: potent inhibitor

## Antimycin A from Streptomyces sp. [A8674]
Y79; 1 minute, 1 uL
  Y (probability that dysfunction D1 is present): 0%
Y79; 30 minutes, 5 uL
  Y (probability that dysfunction D1 is present): 100% or 1
Y79; 1 hours, 1 uL
  Y (probability that dysfunction D1 is present): 100% or 1
Y79; 5 hours, 1 uL
  Y (probability that dysfunction D1 is present): 100% or 1
Y79; 10 hours, 1 uL
  Y (probability that dysfunction D1 is present): 100% or 1
Y79; 2 days, 1 uL
  Y (probability that dysfunction D1 is present): 100% or 1
apoptosis
  apoptosis: complex III. Induces apoptosis.

## ML-3H2 [M2324]
[12]
  inhibition of human porphobilinogen synthase: hexamer-stabilizing inhibitor

## m-Iodobenzyl-guanidine hemisulfate salt [I9890]
ADP ribosylation
  ADP ribosylation: Antitumor agent which inhibits
